Values quoted from earlier work, collected in US12611419B2, “Liposomal composition for use in a method of treating Parkinson's disease” (INNOMEDICA HOLDING AG, priority 2017, dated 2026).

Legend:
spinal cord injuries = settings: patients
B4galnt1 transgenic mice = settings: mice deficient in GM1 family gangliosides
[1] = tested on: rodent model of Parkinson's disease; settings: in vivo

| Compound | safety, open pilot study (PD patients; 10 PD patients, 1000 mg i.v. then 200 mg/day subcutaneous, 18 weeks) | anti-GM1 antibody titres, open pilot study (PD patients; 10 PD patients, 18 weeks) | PET (11)C-methylphenidate binding (PD patients; GM1-treated groups, baseline, week 24, 1-2 years later) | safety of long-term administration (PD patients; delayed start study) | UPDRS motor scores, early-start group (PD patients; delayed start study, week 24) | UPDRS motor scores, five-year open extension (PD patients; end of 5 years of GM1 use, off period) | UPDRS motor scores vs placebo (PD patients; randomized placebo-controlled study, 45 individuals, 16 weeks) | adverse events at the injection site (PD patients; subcutaneous administration) | outcome in spinal cord injuries (spinal cord injuries) | pathological CNS manifestations (B4galnt1 transgenic mice) | Parkinson's symptoms [1] |
| --- | --- | --- | --- | --- | --- | --- | --- | --- | --- | --- | --- |
| monosialotetrahexosylganglioside [GM1] | safe and well tolerated | none of the patients developed elevated anti-GM1 antibody titres | significant slowing of binding loss in several striatal regions | safe and well tolerated | significant improvement in UPDRS motor scores | lower UPDRS motor scores | significant differences between groups | pain, irritation of the skin site and severe haematoma at the injection site occur | positive outcomes in patients | ameliorated these pathological CNS manifestations |  |
| CCCCCCCCCCCCC/C=C/C(O)C(COC1OC(CO)C(OC2OC(CO)C(OC3OC(CO)C(O)C(OC4OC(CO)C(O)C(O)C4O)C3NC(C)=O)C(OC3(C(=O)O)CC(O)C(NC(C)=O)C(C(O)C(O)CO)O3)C2O)C(O)C1O)NC(=O)C(Cl)Cl (centres unmarked) [LIGA20] |  |  |  |  |  |  |  |  |  |  | reduce Parkinson's symptoms |
